Test results reported in US12281225B2, “Process for preparing stable polymers containing vinylimidazole” (BASF SE, priority 2018, dated 2025).

What was measured:
[1] = Analysis of active substance: preservative concentration before and after storage in VI-containing polymer solution; assay type: physicochemical; conditions: for active-substance concentration, 0 d, RT: before storage; for active-substance concentration, 14 d, 40° C.: storage 14 d at 40° C.; for active-substance concentration, 28 d, 40° C.: storage 28 d at 40° C.; for active-substance concentration, 60 d 40° C.: storage 60 d at 40° C.
Method in brief: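 Preservatives (MIT, BIT, CMIT, OIT, DCOIT, iodopropynyl butyl carbamate) in aqueous vinylpyrrolidone–vinylimidazole copolymer solution quantified after dilution by isocratic RP18 chromatography with UV detection, using an acid-methanol eluent.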

[2] = Iodine color number according to DIN 6162:2014-09; assay type: physicochemical
[3] = Physical stability; visual assessment (color, turbidity, phase separation); assay type: physicochemical; parameters: key: ++: no discernible change with respect to color, turbidity or phase separation; +: marginal change in color number, somewhat increased Tyndall effect but no turbidity; 0: easily discernible increase in color number and moderate turbidity−no phase separation; −: turbidity and change in color number readily discernible by visual assessment; −−: strong color change with strong turbidity and incipient phase separation
Method in brief: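 Scoring was by eye on a scale from ++ to −−, where ++ means no change and −− means strong color change, strong turbidity and incipient phase separation. Color, turbidity and phase separation were the criteria.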

[4] = test system: Bacteria: Escherichia coli, Staphylococcus aureus, Pseudomonas aeruginosa, Pseudomonas putida, Burkholderia cepacia, Alcaligenes faecalis; experiment: Preservation test with periodic inoculation, bacteria assessment; assay type: cell-based; conditions: for 60 d 40° C., bact. assess., 4th inoculation: sample stored 60 d at 40° C.; for Start sample measurement, bact. assess., 4th inoculation: freshly formulated
Method in brief: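 Semiquantitative growth scores (−− no growth to ++ strong growth) from weekly agar streaks incubated 3 days at 25 °C. Preserved polymer samples got four weekly 0.5 ml inoculations (titer 10^9 organisms/ml), the first two days after preservative addition; testing began fresh and after 60-day storage at 40 °C.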

[5] = Polymer P5 (HP56) with stabilizer

CCCCCCCCn1sccc1=O [OIT, octylisothiazolinone]
active-substance concentration, 0 d, RT ([1]; in Polymer P1): 250 ppm
active-substance concentration, 14 d, 40° C. ([1]; in Polymer P1): 142 ppm
active-substance concentration, 28 d, 40° C. ([1]; in Polymer P1): 89 ppm
active-substance concentration, 60 d 40° C. ([1]; in Polymer P1): 72 ppm
active-substance concentration, 0 d, RT ([1]; in Polymer P2): 250 ppm
active-substance concentration, 14 d, 40° C. ([1]; in Polymer P2): 170 ppm
active-substance concentration, 28 d, 40° C. ([1]; in Polymer P2): 101 ppm
active-substance concentration, 60 d 40° C. ([1]; in Polymer P2): 84 ppm
active-substance concentration, 0 d, RT ([1]; in Polymer P3): 250 ppm
active-substance concentration, 14 d, 40° C. ([1]; in Polymer P3): 163 ppm
active-substance concentration, 28 d, 40° C. ([1]; in Polymer P3): 121 ppm
active-substance concentration, 60 d 40° C. ([1]; in Polymer P3): 96 ppm
active-substance concentration, 0 d, RT ([1]; in Polymer P4): 250 ppm
active-substance concentration, 14 d, 40° C. ([1]; in Polymer P4): 165 ppm
active-substance concentration, 28 d, 40° C. ([1]; in Polymer P4): 114 ppm
active-substance concentration, 60 d 40° C. ([1]; in Polymer P4): 90 ppm
active-substance concentration, 0 d, RT ([1]; in Polymer P5 (HP56)): 250 ppm
active-substance concentration, 14 d, 40° C. ([1]; in Polymer P5 (HP56)): 142 ppm
active-substance concentration, 28 d, 40° C. ([1]; in Polymer P5 (HP56)): 89 ppm
active-substance concentration, 60 d 40° C. ([1]; in Polymer P5 (HP56)): 72 ppm
active-substance concentration, 0 d, RT ([1]; in Polymer P6): 250 ppm
active-substance concentration, 14 d, 40° C. ([1]; in Polymer P6): 135 ppm
active-substance concentration, 28 d, 40° C. ([1]; in Polymer P6): 88 ppm
active-substance concentration, 60 d 40° C. ([1]; in Polymer P6): 68 ppm
active-substance concentration, 0 d, RT ([1]; in Polymer P7): 250 ppm
active-substance concentration, 14 d, 40° C. ([1]; in Polymer P7): 139 ppm
active-substance concentration, 28 d, 40° C. ([1]; in Polymer P7): 92 ppm
active-substance concentration, 60 d 40° C. ([1]; in Polymer P7): 73 ppm
active-substance concentration, 0 d, RT ([1]; in Polymer P8): 250 ppm
active-substance concentration, 14 d, 40° C. ([1]; in Polymer P8): 142 ppm
active-substance concentration, 28 d, 40° C. ([1]; in Polymer P8): 89 ppm
active-substance concentration, 60 d 40° C. ([1]; in Polymer P8): 72 ppm
active-substance concentration, 0 d, RT ([1]; in Polymer P9): 250 ppm
active-substance concentration, 14 d, 40° C. ([1]; in Polymer P9): 128 ppm
active-substance concentration, 28 d, 40° C. ([1]; in Polymer P9): 76 ppm
active-substance concentration, 60 d 40° C. ([1]; in Polymer P9): 62 ppm
Iodine color number, 60 d 40° C. ([2]; Polymer P1 with stabilizer): 5.9
Iodine color number, start ([2]; Polymer P1 with stabilizer): 2.8
Iodine color number, 60 d 40° C. ([2]; Polymer P2 with stabilizer): 8.0
Iodine color number, start ([2]; Polymer P2 with stabilizer): 3.0
Iodine color number, 60 d 40° C. ([2]; Polymer P3 with stabilizer): 9.2
Iodine color number, start ([2]; Polymer P3 with stabilizer): 3.3
Iodine color number, 60 d 40° C. ([2]; Polymer P4 with stabilizer): 9.7
Iodine color number, start ([2]; Polymer P4 with stabilizer): 3.3
Iodine color number, 60 d 40° C. [2, 5]: 9.7
Iodine color number, start [2, 5]: 3.4
Iodine color number, 60 d 40° C. ([2]; Polymer P6 with stabilizer): 9.7
Iodine color number, start ([2]; Polymer P6 with stabilizer): 3.4
Iodine color number, 60 d 40° C. ([2]; Polymer P7 with stabilizer): 9.7
Iodine color number, start ([2]; Polymer P7 with stabilizer): 3.4
Iodine color number, 60 d 40° C. ([2]; Polymer P8 with stabilizer): 10.0
Iodine color number, start ([2]; Polymer P8 with stabilizer): 3.3
Iodine color number, 60 d 40° C. ([2]; Polymer P9 with stabilizer): 15.5
Iodine color number, start ([2]; Polymer P9 with stabilizer): 4.0
Physical stability, 60 d 40° C.* ([3]; Polymer P1 with stabilizer): −−
Physical stability, 60 d 40° C.* ([3]; Polymer P2 with stabilizer): −−
Physical stability, 60 d 40° C.* ([3]; Polymer P3 with stabilizer): −−
Physical stability, 60 d 40° C.* ([3]; Polymer P4 with stabilizer): −−
Physical stability, 60 d 40° C.* [3, 5]: −−
Physical stability, 60 d 40° C.* ([3]; Polymer P6 with stabilizer): −−
Physical stability, 60 d 40° C.* ([3]; Polymer P7 with stabilizer): −−
Physical stability, 60 d 40° C.* ([3]; Polymer P8 with stabilizer): −−
Physical stability, 60 d 40° C.* ([3]; Polymer P9 with stabilizer): −−
60 d 40° C., bact. assess., 4th inoculation ([4]; Polymer P1): +
60 d 40° C., bact. assess., 4th inoculation ([4]; Polymer P2): +
60 d 40° C., bact. assess., 4th inoculation ([4]; Polymer P3): ++
Start sample measurement, bact. assess., 4th inoculation ([4]; Polymer P4): − (slight growth, max. 100 colonies)
60 d 40° C., bact. assess., 4th inoculation ([4]; Polymer P4): ++
Start sample measurement, bact. assess., 4th inoculation ([4]; Polymer P5 (HP56)): − (slight growth, max. 100 colonies)
60 d 40° C., bact. assess., 4th inoculation ([4]; Polymer P5 (HP56)): ++
Start sample measurement, bact. assess., 4th inoculation ([4]; Polymer P6): − (slight growth, max. 100 colonies)
60 d 40° C., bact. assess., 4th inoculation ([4]; Polymer P6): ++
Start sample measurement, bact. assess., 4th inoculation ([4]; Polymer P7): − (slight growth, max. 100 colonies)
60 d 40° C., bact. assess., 4th inoculation ([4]; Polymer P7): ++
60 d 40° C., bact. assess., 4th inoculation ([4]; Polymer P8): +
60 d 40° C., bact. assess., 4th inoculation ([4]; Polymer P9): ++
